{"source": "patent US20050222418A1", "about": "“Novel tyloindicines and related processes, pharmaceutical compositions and methods” (priority 2002, published 2005)", "key": {"KB cells": {"system": "KB cells", "experiment": "Cell cycle analysis (flow cytometry), KB", "assay_type": "cell-based, human", "conditions": "24 h treatment", "excerpt": "(§1) FIG. 1 illustrates the following referred to in the Examples herein: • “A. Chemical structure” provides the structural formulae for (+)-(S)-tylophorine (also referred to herein as compound “III-2” and DCB-3500); DCB-3501; “compound II-3a of FIG. 15”; and, in FIGS. 18-22, as […]); DCB-3502 (also referred to herein as “compound II-2); and DCB-3503 (also referred to herein as “NSC 716802”; “compound II-3b” of FIG. 15; and “ZH-152”). • “Table 1, B and C” provides EC50 and LD50 values for use of DCB-3500, DCB-3501, DCB-3502, and DCB-3503 against KB and HepG2 cancer cell lines resistant to various anticancer drugs, including VP-16 (etoposide), VCR (vincristine), CPT (camptothecin), and DOX (doxorubicin). • “Table 2 A, and B, and Table 3” illustrate that KB and HepG2 cancer cell lines are inhibited by the compounds of the instant invention. […] At the end of treatment, cells were washed, resuspended in PBS and stained with propidium iodide containing Rnase A for flow cytometric analysis. Data were analyzed using Modfit software.\n(§2) KB and HepG2 cells were treated for 24 h with increasing concentrations of DCB-3500 and DCB-3503. At the end of treatment, cells were trypsinized, and the resulting cell suspensions were centrifuged at 1000 rpm for 5 min. The cells were fixed overnight in 70% ethanol at 4° C., centrifuged at 1000 rpm for 5 min, the pellets were washed twice with ice-cold PBS. Cell pellets were then resuspended in 0.5 ml PBS containing 50 μg/ml propidium iodide (Sigma-Aldrich) and 100 μg/ml RNase A (Sigma-Aldrich), incubated at 37° C. for 30 min, and then analyzed by FACScan using Cell Quest software (Becton Dickinson Labware, Franklin Lakes, N.J.). Data were analyzed using Modfit LT version 3.1 software (Verity Software House, Topsham, Me.) for cell cycle profile. (FIG. 1, Table 3)"}, "[1]": {"system": "KB cells and its drug resistant cells", "experiment": "Cross resistance studies in drug resistant cell lines", "assay_type": "cell-based, human", "conditions": "cells resistant to VP-16, VCR, CPT or DOX", "excerpt": "as §1\nFIG. 18 describes cross resistance studies in KB cell lines using DCB-3503.\n(§3) Cells (1×10^4/well) were plated in 24-well plates. After 24 h, cells were treated with drugs for three generation times, then fixed and stained with 0.5% methylene blue in 50% ethanol for 2 h, followed by washing with tap water to remove excess color. Plates were dried and then resuspended in 1% sarkosyl, rotated at room temperature for 3 h. Cell growth was quantitated from the amount of methylene blue absorbed to the cells as measured by a spectrophotometer (Molecular Dynamics) at 595 nm. All experiments were performed in triplicate wells and were repeated at least three times. (see FIG. 1, Table 1B and Table 1C)."}, "HepG2 cells": {"system": "HepG2 cells", "experiment": "Cell cycle analysis (flow cytometry), HepG2", "assay_type": "cell-based, human", "conditions": "24 h treatment", "excerpt": "as §1, §2"}, "[2]": {"system": "NF-κB mediated transcription", "experiment": "Firefly luciferase reporter assay in HepG2 cells", "assay_type": "cell-based, human", "conditions": "HepG2 cells transfected with pBIIX-luc, TNFa stimulation", "method": "HepG2 cells were transiently transfected with firefly luciferase reporter vectors pMyc-TA-luc, pE2F-TAO-luc, pAP1-luc, pCRE-luc, or pBIIX-luc (containing two tandemly repeated NF-kB binding sites), respectively, along with internal control vector phRL-luc which is a promoterless renilla luciferase reporter vector. The day after transfection, cells were pretreated with increasing concentrations of 3500 for 1 h, then cells were stimulated with serum for 24 h, or TPA, forskolin or TNFa for 6 h Firefly and renilla uciferase activities were measured using Promega's dual-luciferase assay kit Data presented is firefly luciferase activity.\nHepG2 cells were plated at a density of 2×10^4 per well (48-well plate) and transfected with 0.2 μg of firefly luciferase reporter vector pMyc-TA-luc, pE2F-TA-luc, pAP1-luc, pCRE-luc, or pBIIX-luc (containing two tandemly repeated NF-κB binding sites) respectively, along with internal control vector promoter-less renilla luciferase reporter vector phRL (Promega), using FuGENE 6™ transfection reagent according to the manufacturer's instructions. Cell extracts were prepared and luciferase activity was measured using a Dual-luciferase (firefly and renilla luciferase) assay kit according to the manufacturer's instructions."}, "[3]": {"system": "human cell-line tumor panel", "experiment": "NCI human cell-line tumor panel (DTP screen)", "assay_type": "cell-based", "conditions": "for antitumor activity in NCI in vitro screen: sixty-panel in vitro screen against human-derived tumors; for LC50 for several melanoma and lung cancer cell lines versus the other cell lines: DTP panel; for ranking by average concentration required for total growth inhibition (TGI): screen of 33,744 compounds, fifty-four cell lines", "excerpt": "The ranking system was based on the average concentration required to yield a total growth inhibition (TGI) in the numbers of cell lines of the screen (54 for tylo F and tylo G). […] In fact, for many cell lines, the data were off scale; designated as <10^−10 M."}, "[4]": {"system": "KB (head and neck cancer)", "experiment": "In vitro cell culture growth inhibition, KB", "assay_type": "cell-based, human", "method": "(§4) Compound II-3 (NSC-716802) was tested in in vitro cell culture studies.\nas §3"}, "HepG2 (hepatocarcinoma)": {"system": "HepG2 (hepatocarcinoma)", "experiment": "In vitro cell culture growth inhibition, HepG2", "assay_type": "cell-based, human", "method": "as §4, §3"}, "HepG2 tumor": {"system": "HepG2 tumor", "experiment": "HepG2 tumor growth inhibition in nude mice", "assay_type": "in vivo", "conditions": "10 mg/kg ip once daily for 5 days; for tumor growth inhibition: HepG2 tumor-bearing nude mice", "excerpt": "FIG. 22 illustrates toxicity and tumor growth inhibition studies using DCB-3503.\nFour-week-old male NCR-nude mice were obtained from Taconic, and acclimated to laboratory conditions 1 week before tumor implantation. Human HepG2 tumor xenografts were established by injecting subcutaneously 2×10^6 HepG2 cells. […] Tumor weight was estimated by using the equation: Length of tumor×(wide of tumor/2)^2. (FIG. 1(a))"}, "SK-MEL-2": {"system": "SK-MEL-2", "experiment": "In vitro cell culture growth inhibition, SK-MEL-2", "assay_type": "cell-based, human", "method": "as §4, §3"}, "[5]": {"experiment": "Toxicity studies in C57BL/6 mice", "assay_type": "in vivo", "excerpt": "FIG. 21 illustrates toxicity studies of DCB-3503 in C57BL/6 mice."}, "KB and HepG2 cells": {"system": "KB and HepG2 cells", "experiment": "Clonogenic assay", "assay_type": "cell-based, human", "conditions": "24 h exposure, colonies counted after 8 generations", "method": "FIG. 19 illustrates the effect of DCB-3503 (ZH-152) in clonogenic assays. As depicted, cells were seeded at 5×10^4 per well, then DCB-3503 was added at concentrations ⅓, 1× and 3× the IG50. After a 24 h treatment, the cells were recounted and seeded into a fresh 6 well plate at 200 cells per well. After 8 generations of time the colonies were stained with methylene blue and counted. The cloning efficiency for HepG2 was 10% and for KB was 94%. Both cell lines were exposed to DCB-3503 with the concentration indicated for 24 h. The loss of clonegenic efficiency of cells post drug treatment is shown. […] This supports the previous observation using a different procedure.\nThey were then grown in the absence of the drug. After eight generations, the colonies were stained and counted.\nCells (5×10^4/well) were plated in 6-well plates. After 24 h, cells were treated with drugs for an additional 24 h. Cells were then trypsinized, counted, and cell viability was determined by trypan blue staining, 200 trypan blue negative cells were plated in triplicate in 6-well plates and grown for eight to ten generation times, then fixed and stained with 0.5% methylene blue in 50% ethanol for 1 h, after plates were washed and dried, the colonies were counted. (FIG. 1, Table 1C)."}}, "data": [{"smiles": "COc1cc2c3c(c4cc(OC)c(OC)cc4c2cc1OC)CN1CCCC1C3", "note": "(stereo in doubt) [DCB-3500, (+)-(S)-tylophorine]", "values": [{"measurement": "effect on cell cycle progression (S phase)", "setting": "KB cells", "value": "induce S phase accumulation"}, {"measurement": "cross-resistance with conventional anticancer drugs", "setting": "[1]", "value": "no cross-resistance"}, {"measurement": "effect on cell cycle progression (S phase)", "setting": "HepG2 cells", "value": "not in HepG2 cells"}, {"measurement": "activity against NF-κB mediated transcription", "setting": "[2]", "value": "potent activity"}]}, {"smiles": "COc1cc2c3c(c4cc(OC)c(OC)cc4c2cc1OC)[C@@H](O)[C@@H]1CCCN1C3", "note": "[DCB-3501]", "values": [{"measurement": "antitumor activity in NCI in vitro screen", "setting": "[3]", "value": "extraordinary antitumor activity"}, {"measurement": "cross-resistance with conventional anticancer drugs", "setting": "[1]", "value": "no cross-resistance"}]}, {"smiles": "COc1cc2c(cc1OC)-c1cc(OC)c(OC)cc1[C@H]1CN3CCCC3C=C21", "note": "(stereo partly drawn) [II-2, (S)-2,3,6,7-Tetramethoxy-8b,9,10,11,12,12a-hexahydro-9a-aza-cyclopenta[b]-triphenylene]", "values": [{"measurement": "antitumor activity in NCI in vitro screen", "setting": "[3]", "value": "active"}, {"measurement": "antitumor activity in NCI in vitro screen", "setting": "[3]; listed as NSC-717335", "value": "potent antitumor activity"}, {"measurement": "potency relative to compound II-3 (times more)", "setting": "[4]; KB cell growth in culture", "value": "3 to 5"}, {"measurement": "potency relative to compound II-3 (times more)", "setting": "HepG2 (hepatocarcinoma); HepG2 cell growth in culture", "value": "3 to 5"}, {"measurement": "cross-resistance with conventional anticancer drugs", "setting": "[1]", "value": "no cross-resistance"}, {"measurement": "activity against NF-κB mediated transcription", "setting": "[2]", "value": "potent activity"}]}, {"smiles": "COc1cc2c3c(c4cc(OC)c(OC)cc4c2cc1OC)[C@H](O)[C@@H]1CCCN1C3", "note": "[II-3, (12S,13S)-2,3,6,7-Tetramethoxy-9,10,11,12,12a,13-hexahydro-9a-aza-cyclopenta[b]triphenylen-13-ol]", "values": [{"measurement": "weight loss", "setting": "HepG2 tumor; HepG2 tumor-bearing mice", "value": "without significant weight loss"}, {"measurement": "tumor growth inhibition", "setting": "HepG2 tumor; 10 mg/kg", "value": "profound antitumor effect"}, {"measurement": "tumor growth inhibition", "setting": "HepG2 tumor; listed as DCB-3503, 10 mg/kg", "value": "potent inhibitory activity"}, {"measurement": "GI50", "setting": "SK-MEL-2", "value": 160, "unit": "nM"}, {"measurement": "acute toxicity", "setting": "[5]", "value": "manageable"}, {"measurement": "toxicity (dose causing weight loss)", "setting": "[5]", "value": 10, "unit": "mg/kg"}, {"measurement": "loss of clonogenic efficiency, HepG2 versus KB", "setting": "KB and HepG2 cells", "value": "more sensitive"}, {"measurement": "loss of clonogenic efficiency, HepG2 versus KB", "setting": "KB and HepG2 cells; listed as DCB-3503", "value": "HepG2 is much more sensitive than KB cells"}, {"measurement": "antitumor activity in NCI in vitro screen", "setting": "[3]", "value": "active"}, {"measurement": "antitumor activity in NCI in vitro screen", "setting": "[3]; listed as 3503", "value": "extraordinary antitumor activity"}, {"measurement": "antitumor activity in NCI in vitro screen", "setting": "[3]; listed as NSC-716802", "value": "potent antitumor activity"}, {"measurement": "effect on cell cycle progression (S phase)", "setting": "KB cells", "value": "inhibition at targets that are responsible for S-phase progression"}, {"measurement": "effect on cell cycle progression (S phase)", "setting": "KB cells; listed as 3503", "value": "induce S phase accumulation"}, {"measurement": "effect on cell cycle progression (S phase)", "setting": "KB cells; listed as DCB-3503", "value": "slows down the cell progress in S-phase"}, {"measurement": "GI50", "setting": "[4]; KB", "value": 200, "unit": "nM"}, {"measurement": "GI50", "setting": "HepG2 (hepatocarcinoma); HepG2", "value": 60, "unit": "nM"}, {"measurement": "cross-resistance with conventional anticancer drugs", "setting": "[1]", "value": "sensitive"}, {"measurement": "cross-resistance with conventional anticancer drugs", "setting": "[1]; listed as 3503", "value": "no cross-resistance"}, {"measurement": "cross-resistance with conventional anticancer drugs", "setting": "[1]; listed as ZH-152", "value": "still sensitive"}, {"measurement": "effect on cell cycle progression (S phase)", "setting": "HepG2 cells", "value": "inhibition at targets that are responsible for S-phase progression"}, {"measurement": "effect on cell cycle progression (S phase)", "setting": "HepG2 cells; listed as 3503", "value": "not in HepG2 cells"}, {"measurement": "effect on cell cycle progression (S phase)", "setting": "HepG2 cells; listed as DCB-3503", "value": "slows down the cell progress in S-phase"}, {"measurement": "activity against NF-κB mediated transcription", "setting": "[2]", "value": "potent activity"}]}, {"smiles": "COc1ccc(C2=C[C@]3(O)CCCN3C[C@@H]2c2ccc(OC)c(OC)c2)cc1", "note": "[tylo F, tyloindicine F]", "values": [{"measurement": "LC50 for several melanoma and lung cancer cell lines versus the other cell lines", "setting": "[3]", "value": "two orders of magnitude less"}, {"measurement": "ranking by average concentration required for total growth inhibition (TGI)", "setting": "[3]", "value": "most potent anticancer agents examined"}]}, {"smiles": "COc1cc2c(cc1OC)-c1cc(OC)c(OC)cc1[C@H]1CN3CCC[C@@]3(O)C=C21", "note": "[tylo G, tyloindicine G]", "values": [{"measurement": "LC50 for several melanoma and lung cancer cell lines versus the other cell lines", "setting": "[3]", "value": "two orders of magnitude less"}, {"measurement": "ranking by average concentration required for total growth inhibition (TGI)", "setting": "[3]", "value": "most potent anticancer agents examined"}]}, {"smiles": "COc1cc2c(cc1OC)[C@H]1CN3CCC[C@H]3C=C1c1ccc(OC)c(O)c1-2", "note": "[tylo H, tyloindicine H]", "values": [{"measurement": "antitumor activity in NCI in vitro screen", "setting": "[3]", "value": "active"}]}, {"smiles": "COc1ccc(C2=CN3CCC[C@H]3C=C2c2cc(O)c(OC)c(OC)c2)cc1OC", "note": "[tylo I, tyloindicine I]", "values": [{"measurement": "antitumor activity in NCI in vitro screen", "setting": "[3]", "value": "active"}]}]}
